Read-outs that look alike come from different tables or passages of the source.
Test system: SD male rats bred under water immersion
Conditions: swim with burden of ca. 8% of body weight, n=4, FIG. 1

| Structure (SMILES) | swimming time (time until the tip of nose was submerged in water for 10 seconds or more) (reduced glutathione 800 mg/kg body weight orally once a day for 5 days of water immersion breeding) | swimming time (time until the tip of nose was submerged in water for 10 seconds or more) (ornithine 1000 mg/kg body weight orally once a day for 5 days of water immersion breeding) |
| --- | --- | --- |
| N[C@@H](CCC(=O)N[C@@H](CS)C(=O)NCC(=O)O)C(=O)O [glutathione, reduced glutathione] | no change was recognized | – |
| Cl.NCCC[C@H](N)C(=O)O [ornithine, L-ornithine hydrochloride] | – | recovery of the swimming time was recognized |

From patent US20100137226A1, “FATIGUE-REDUCING AGENT” (KYOWA HAKKO BIO CO., LTD, priority 2006, published 2010)
